# Patent US9169254B2, “Spiroimidazolone derivative” (Chugai Seiyaku Kabushiki Kaisha, priority 2009, dated 2015)
# Target: T1, human PTH1 receptor (Homo sapiens, UniProt Q03431)
# T1 sequence (Q03431 27-593): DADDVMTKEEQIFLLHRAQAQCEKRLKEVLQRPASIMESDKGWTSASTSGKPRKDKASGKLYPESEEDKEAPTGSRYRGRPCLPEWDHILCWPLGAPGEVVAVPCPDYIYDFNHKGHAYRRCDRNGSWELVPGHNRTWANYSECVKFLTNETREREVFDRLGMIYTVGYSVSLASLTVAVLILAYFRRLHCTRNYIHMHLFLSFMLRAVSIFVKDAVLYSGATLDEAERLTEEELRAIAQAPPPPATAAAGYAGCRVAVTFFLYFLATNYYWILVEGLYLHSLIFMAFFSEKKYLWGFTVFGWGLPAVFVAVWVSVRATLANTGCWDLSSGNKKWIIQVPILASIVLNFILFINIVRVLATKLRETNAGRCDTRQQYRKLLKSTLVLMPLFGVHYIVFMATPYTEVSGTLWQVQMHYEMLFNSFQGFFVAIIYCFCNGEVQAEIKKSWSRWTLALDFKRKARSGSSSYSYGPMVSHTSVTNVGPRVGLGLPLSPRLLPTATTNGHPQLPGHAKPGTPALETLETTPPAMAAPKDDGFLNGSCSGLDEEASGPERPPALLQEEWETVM
# Experiment: In vitro cAMP signal activity in HKRK-B7 cells (LLC-PK1 cells overexpressing the human PTH1 receptor)
# Assay type: cell-based
# Conditions: HKRK-B7 cells; compound at 1×10^−3 M; cAMP produced as percentage of that produced by hPTH(1-34) at 100 nM
row,cAMP production activity (%),Compound
1,79%,"CCc1cc(N(C)C(N)=O)ccc1CCS(=O)(=O)N1CCC2(CC1)N=C(C1CCC(C)CC1)NC2=O (stereo not shown) [Compound 829, 1-(3-ethyl-4-{2-[2-(4-methyl-cyclohexyl)-4-oxo-1,3,8-triaza-spiro[4.5]dec-1-ene-8-sulfonyl]-ethyl}-phenyl)-1-methyl-urea]"
2,72%,"Cc1cc(N(C)C(N)=O)ccc1CCS(=O)(=O)N1CCC2(CC1)N=C(c1cccc(OC(F)(F)F)c1)NC2=O [Compound 301, 1-methyl-1-(3-methyl-4-{2-[4-oxo-2-(3-trifluoromethoxy-phenyl)-1,3,8-triaza-spiro[4.5]dec-1-ene-8-sulfonyl]-ethyl}-phenyl)-urea]"
3,35%,"Cc1cc(N(CC(F)(F)F)C(N)=O)ccc1CCS(=O)(=O)N1CCC2(CC1)N=C(c1cccc(OC(F)(F)F)c1)NC2=O [Compound 877, 1-(3-methyl-4-{2-[4-oxo-2-(3-trifluoromethoxy-phenyl)-1,3,8-triaza-spiro[4.5]dec-1-ene-8-sulfonyl]-ethyl}-phenyl)-1-(2,2,2-trifluoro-ethyl)-urea]"
4,73%,"CC[C@H]1CC[C@H](C2=NC3(CCN(S(=O)(=O)CCc4ccc(NC5=NCCS5)cc4C)CC3)C(=O)N2)CC1 [Compound 1295, 8-{2-[4-(4,5-Dihydro-thiazol-2-ylamino)-2-methyl-phenyl]-ethanesulfonyl}-2-(4-ethyl-cyclohexyl)-1,3,8-triaza-spiro[4.5]dec-1-en-4-one]"
5,5.1%,"O=C(Cc1cnc[nH]1)N1CCCC(C2=NC3(CCN(S(=O)(=O)CCc4cccc5ccccc45)CC3)C(=O)N2)C1 (stereo not shown) [Compound 432, 2-[1-(2-3H-imidazol-4-yl-acetyl)-piperidin-3-yl]-8-(2-naphthalen-1-yl-ethanesulfonyl)-1,3,8-triaza-spiro[4.5]dec-1-en-4-one]"

# Second part, the compound before the results:
row,Compound,cAMP production activity (%)
1,"Cc1cc(N(C(N)=O)C2CCCC2)ccc1/C=C/S(=O)(=O)N1CCC2(CC1)N=C(c1cccc(OC(F)(F)F)c1)NC2=O [Compound 730, 1-cyclopentyl-1-(3-methyl-4-{(E)-2-[4-oxo-2-(3-trifluoromethoxy-phenyl)-1,3,8-triaza-spiro[4.5]dec-1-ene-8-sulfonyl]-vinyl}-phenyl)-urea]",74%
2,"O=C(c1ccc2ncccc2c1)N1CCCC(C2=NC3(CCN(S(=O)(=O)CCc4cccc5ccccc45)CC3)C(=O)N2)C1 (stereo not shown) [Compound 431, 8-(2-naphthalen-1-yl-ethanesulfonyl)-2-[1-(quinoline-6-carbonyl)-piperidin-3-yl]-1,3,8-triaza-spiro[4.5]dec-1-en-4-one]",14%
3,"Cc1cc(C(=O)N2CCC(O)CC2)cc(C)c1CCS(=O)(=O)N1CCC2(CC1)N=C(c1ccc3c(c1)OC(F)(F)O3)NC2=O [Compound 1333, 2-(2,2-difluoro-benzo[1,3]dioxol-5-yl)-8-{2-[4-(4-hydroxy-piperidine-1-carbonyl)-2,6-dimethyl-phenyl]-ethanesulfonyl}-1,3,8-triaza-spiro[4.5]dec-1-en-4-one]",109%
4,"Cc1cc(N2C(=O)CNC2=O)cc(C)c1/C=C/S(=O)(=O)N1CCC2(CC1)N=C(c1ccc(F)c(C(F)(F)F)c1)NC2=O [Compound 636, 3-(4-{(E)-2-[2-(4-Fluoro-3-trifluoromethyl-phenyl)-4-oxo-1,3,8-triaza-spiro[4.5]dec-1-ene-8-sulfonyl]-vinyl}-3,5-dimethyl-phenyl)-imidazolidine-2,4-dione]",88%
5,"Cc1cc(N(C)C(=O)OC(C)(C)C)cc(C)c1CCS(=O)(=O)N1CCC2(CC1)N=C(C1CCCN1C(=O)OC(C)(C)C)NC2=O (stereo not shown) [Compound 1033, 2-(8-{2-[4-(tert-Butoxycarbonyl-methyl-amino)-2,6-dimethyl-phenyl]-ethanesulfonyl}-4-oxo-1,3,8-triaza-spiro[4.5]dec-1-en-2-yl)-pyrrolidine-1-carboxylic acid tert-butyl ester]",22%
